Laboratory results from patent US20260055126A1, “SMALL MOLECULE COMPOUNDS WITH PHOSPHORYLATED ARYL STRUCTURES AND USE THEREOF” (HANGZHOU PHECDAMED CO., LTD., priority 2022, published 2026).
Where “and” joins values, the source holds several entries; their conditions need not be identical. Equal entries are not always repeated.

What was measured:
[1] = target: recombinant TEAD4 protein (217-434, Uniprot ID: Q15561) (Homo sapiens (Human), UniProt Q15561); assay: Thermal shift assay (protein melting point curve), TEAD4; assay type: binding; settings: 10 μM TEAD protein, 50 μM test compound
Chain of recombinant TEAD4 protein (217-434, Uniprot ID: Q15561) (Q15561 217-434): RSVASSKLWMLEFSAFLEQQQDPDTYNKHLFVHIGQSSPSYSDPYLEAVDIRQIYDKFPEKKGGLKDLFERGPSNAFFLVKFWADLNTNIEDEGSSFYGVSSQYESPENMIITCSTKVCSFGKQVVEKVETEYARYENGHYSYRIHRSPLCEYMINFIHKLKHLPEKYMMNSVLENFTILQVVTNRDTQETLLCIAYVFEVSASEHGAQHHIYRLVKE

[2] = In vitro liver microsome stability, dog; assay type: in vitro ADME; settings: dog liver microsomes
Experimental: (§1) Testosterone is selected as the positive reference compound. The specific method is as follows:
(§2) Preparing 0.1MK3 PO4 (pH 7.4) buffer and 3×NADPH stock solution (6 mM, 5 mg/mL), and preheating in a 37° C. water bath; preparing spiking solution of tested compound and control compound: adding 5 μL compound stock solution (10 mM) to 95 μL acetonitrile; preparing 1.5 μM spiking solution in microsomes (0.75 mg/mL): add 1.5 μL spiking solution and 18.75 μL liver microsome solution (20 mg/mL) to 479.75 μL K3PO4 buffer; taking 30 μL spiking solution in microsomes and adding it to the multiwell plate, and incubating at 37° C. for 5 min; adding 15 μL of NADPH stock solution to each well, starting to react, and timing; adding 150 μL of acetonitrile solution containing IS at 0 min, 5 min, 15 min, 30 min, 45 min and 60 min respectively to terminate the reaction; after 10 min of oscillation, centrifuging the reaction at 6000 rpm for 15 min; taking 80 μL of supernatant from each well for LC/MS detection and calculating Ti/2.
(§3) Liver microsomes of mice, rats, dogs, and human used in the experiment are purchased from Xenotech.

[3] = target: recombinant TEAD2 protein (218-447, Uniprot ID: Q15562) (Homo sapiens (Human), UniProt Q15562); assay: Thermal shift assay (protein melting point curve), TEAD2; assay type: binding; settings: 10 μM TEAD protein, 50 μM test compound
Chain of recombinant TEAD2 protein (218-447, Uniprot ID: Q15562) (Q15562 218-447): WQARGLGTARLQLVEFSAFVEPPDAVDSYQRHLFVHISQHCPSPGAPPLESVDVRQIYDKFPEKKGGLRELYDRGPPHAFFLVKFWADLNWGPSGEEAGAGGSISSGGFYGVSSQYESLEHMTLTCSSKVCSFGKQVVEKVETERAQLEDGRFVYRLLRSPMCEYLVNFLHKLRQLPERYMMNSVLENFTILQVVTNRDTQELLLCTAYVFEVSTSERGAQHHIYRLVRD

[4] = system: Caco-2 cells; assay: Permeability test on Caco2 cells; assay type: in vitro ADME; settings: for Papp average value: n = 2; for Papp / Receiving chamber concentration Area ratio/OD: single replicate
Experimental: After resuscitation, the Caco-2 cells are transferred to a conventional culture dish and cultured in a high-glucose DMEM medium (containing 10% FBS) at 37° C. and 5% CO2 in an incubator. When the cells cover 80% to 95% of the bottom of the dish, they are digested with trypsin containing 0.25% EDTA to disperse them into a single cell suspension, and the cell concentration is determined using a cell counter, after that, the concentration of the cell suspension is adjusted to 2 to 2.5×10^5/mL with fresh culture medium and inoculated into a Transwell polycarbonate membrane 12-well plate, the fresh culture medium is replaced every two days in the first two weeks and once a day in the last week, the culture is continued for 19 to 21 days to obtain a fully differentiated single cell layer.

[5] = In vitro liver microsome stability, mouse; assay type: in vitro ADME; settings: mouse liver microsomes
Experimental: as §1, §2, §3

[6] = SD rat plasma pharmacokinetic test; assay type: in vivo
Experimental: Animal information: SD rats, male, n=6, about 180-200 g, purchased from Sibeifu (Beijing) Biotechnology Co., Ltd.
Animal dietary status: Animals are fasted for at least 12 h before administration and resumed eating 4h after administration; during the experiment, animals are allowed to drink water freely.
Administration: administering the compound to experimental animals (n=3) by intragastric administration at a dose of 10 mg/kg, and the solvent is 0.5% CMC-Na; administering the compound to experimental animals (n=3) by intravenous injection at a dose of 1 mg/kg, and the solvent is DMSO:PEG400:normal saline=5:30:65, preparing immediately before use.
Sample collection: collecting about 0.25 mL of whole blood at each time point, anticoagulating with EDTA-K2, and placing on ice immediately after collection, within 0.5 h after collection, centrifuging at 4° C., 2000 g for 5 min, and sucking up all plasma and placing in labeled EP tubes, placing the EP tubes on ice, and freezing the plasma samples in a −60˜−90° C. refrigerator within 0.5 h.
Sample processing: centrifuging whole blood samples at 4° C., 2000 g for 5 min within 30 min after collection to separate plasma, and collecting the upper plasma sample into a sample tube.
Sample testing and data processing: Using LC-MS/MS method to detect the concentration of the original drug in plasma samples at each time point. WinNonlin is used for fitting and pharmacokinetic parameter calculation.

[7] = target: recombinant TEAD1 protein central pocket (Homo sapiens (Human), UniProt P28347); assay: Competitive thiol binding assay (CPM assay), TEAD1; settings: 150 nM recombinant TEAD protein, 150 nM CPM
Chain of recombinant TEAD1 protein central pocket (P28347 whole entry): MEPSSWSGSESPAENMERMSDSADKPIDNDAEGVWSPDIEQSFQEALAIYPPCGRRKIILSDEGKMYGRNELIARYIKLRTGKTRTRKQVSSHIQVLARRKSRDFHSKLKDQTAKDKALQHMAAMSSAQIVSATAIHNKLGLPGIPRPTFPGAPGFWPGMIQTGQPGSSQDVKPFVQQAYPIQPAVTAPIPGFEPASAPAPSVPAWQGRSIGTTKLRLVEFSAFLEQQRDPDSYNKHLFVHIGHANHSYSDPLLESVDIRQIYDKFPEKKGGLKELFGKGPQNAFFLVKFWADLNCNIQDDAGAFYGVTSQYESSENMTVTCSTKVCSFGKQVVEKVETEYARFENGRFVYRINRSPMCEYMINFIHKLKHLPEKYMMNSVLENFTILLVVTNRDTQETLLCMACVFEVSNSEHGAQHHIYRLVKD
Experimental: Diluting the tested compound in gradient to 5 uL with buffer (25 mM HEPES, 150 mM NaCl, pH6.5), then adding 5 μL of the newly prepared 0.45 uM recombinant TEAD protein solution, and incubating at room temperature for 10 minutes. […] After shaking the plate at room temperature for 1 hour, measuring the fluorescence intensity (Ex/Em: 380/470 nm).

Δ T m (TEAD4) [1]: ++
dog half-life [2]: 141 min
Δ T m (TEAD2) [3]: ++
Papp average value ([4]; AP→BL): 8.96 10^−6 cm/s
Papp ([4]; AP→BL): 8.81 10^−6 cm/s and 9.12 10^−6 cm/s
Receiving chamber concentration Area ratio/OD ([4]; AP→BL): 0.114 and 0.118
Papp average value ([4]; BL→AP): 18.1 10^−6 cm/s
Papp ([4]; BL→AP): 18.0 10^−6 cm/s and 18.2 10^−6 cm/s
Receiving chamber concentration Area ratio/OD ([4]; BL→AP): 0.699 and 0.708
Penetration Type ([4]; Caco2 cell model): High
intestinal permeability ([4]; Caco2 cell model): high intestinal hypertonicity
mouse half-life [5]: 33.9 min
pharmacokinetic properties in SD rats [6]: good pharmacokinetic properties
AUC0-t ([6]; SD rats, IG 10 mg/kg): 4440 ng·h/mL
AUC0-∞ ([6]; SD rats, IG 10 mg/kg): 4510 ng·h/mL
Cmax ([6]; SD rats, IG 10 mg/kg): 1480 ng/mL
MRT0-t ([6]; SD rats, IG 10 mg/kg): 2.25 h
MRT0-∞ ([6]; SD rats, IG 10 mg/kg): 2.37 h
Tmax ([6]; SD rats, IG 10 mg/kg): 0.50 (0.5, 0.5) h
t1/2 ([6]; SD rats, IG 10 mg/kg): 1.26 h
Absolute bioavailability (%) ([6]; SD rats, IG 10 mg/kg vs IV 1 mg/kg): 84.9%
AUC0-t ([6]; SD rats, IV 1 mg/kg): 506 ng·h/mL
AUC0-∞ ([6]; SD rats, IV 1 mg/kg): 523 ng·h/mL
CL ([6]; SD rats, IV 1 mg/kg): 1970 mL/h/kg
Cmax ([6]; SD rats, IV 1 mg/kg): 333 ng/mL
MRT0-t ([6]; SD rats, IV 1 mg/kg): 1.52 h
MRT0-∞ ([6]; SD rats, IV 1 mg/kg): 1.73 h
Vss ([6]; SD rats, IV 1 mg/kg): 3360 mL/kg
t1/2 ([6]; SD rats, IV 1 mg/kg): 1.18 h
IC50 [7]: 290 nM
SMILES: CP(C)(=O)c1ccc(NCc2ccc(C(F)(F)F)cc2)c(-c2nccc(OC3COC3)n2)c1 [Compound 17]
